Measurements taken from patent US9931324B2, “Indolizine derivatives and their use in neurodegenerative diseases” (Merck Patent GmbH, priority 2014, dated 2018).

The molecules below were run against T1, P2X7 (Homo sapiens, UniProt Q99572) (assay: Pore permeation assay (YO PRO dye uptake, BzATP-induced)). Settings: HEK293 transfected with human P2X7 receptor, BzATP 10 uM, read-out: hP2X7 IC50.
T1 sequence (Q99572 1-595): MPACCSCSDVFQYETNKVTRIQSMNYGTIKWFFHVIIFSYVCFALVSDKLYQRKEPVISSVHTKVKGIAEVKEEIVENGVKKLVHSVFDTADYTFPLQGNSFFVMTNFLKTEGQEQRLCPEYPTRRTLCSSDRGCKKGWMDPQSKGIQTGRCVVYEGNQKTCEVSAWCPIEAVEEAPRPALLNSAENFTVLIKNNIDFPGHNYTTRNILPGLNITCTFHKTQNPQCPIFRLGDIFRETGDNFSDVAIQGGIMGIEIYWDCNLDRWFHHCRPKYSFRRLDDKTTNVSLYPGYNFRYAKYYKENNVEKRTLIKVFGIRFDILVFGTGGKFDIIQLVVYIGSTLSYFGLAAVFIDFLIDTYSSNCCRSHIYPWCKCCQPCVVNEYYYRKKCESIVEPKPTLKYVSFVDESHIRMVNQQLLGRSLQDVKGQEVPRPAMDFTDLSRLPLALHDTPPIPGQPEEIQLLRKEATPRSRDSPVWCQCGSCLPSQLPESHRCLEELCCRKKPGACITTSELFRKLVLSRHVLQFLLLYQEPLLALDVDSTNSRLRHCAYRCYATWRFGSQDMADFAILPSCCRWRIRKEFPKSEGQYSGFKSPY
Format: cell-based
Design: expressed in transfected cells; host or cells: HEK293
Protocol: Agonist-induced pore formation was determined by measuring cellular uptake of YO PRO fluorescence dye in HEK293 transfected with human P2X7 receptor. A HEK293 cell over expressing human P2X7 was harvested using HQTase reagent to detach the cells from T75 cm flask. The harvested cells are centrifuged @1200 rpm for 5 min at room temperature. The viability of cells was determined by Trypan blue dye and the cells are plated @10,000 cell/well in 50 ul volume in a 384W BD Poly lysine coated plate and incubated overnight at 37 C. After overnight incubation, the culture medium was replaced with 35 ul/well assay buffer (5 mM KCl, 0.1 mM CaCl2, 5 mM Glucose, 10 mM HEPES buffer pH7.4 containing 125 mM NaCl. The serial dilution of compounds was performed using Bravo liquid handling instrument and the compounds were added using Bravo to the cell assay plate starting at 2.5 uM with three dilutions for 10 points. The positive control inhibitor compound was added to column 23. The plate was shaken slowly on a plate shaker for 10 seconds. The cells were incubated with the compound for 20 minutes at room temperature. After the incubation period, YO PRO dye (1 uM) along with BzATP (10 uM) were added to cells at 10 ul/well. The plate was centrifuged at 1000 rpm for 5 seconds and incubated at room temperature for 30 minutes. The uptake of YO PRO dye into the cells was measured using Envision Fluorescence plate reader instrument (Perkin Elmer).

| IC50 [nM] | Structure (SMILES) |
| --- | --- |
| < 10 | COCCc1cc(C(=O)NCC2(O)CCCC(F)(F)C2)c2c(Cl)cccn12 (stereo in doubt) [Compound 63, 8-Chloro-3-(2-methoxy-ethyl)-indolizine-1-carboxylic Acid ((S)-3,3-difluoro-1-hydroxy-cyclohexylmethyl)-amide] |
| 101 to 500 | CC1CC(O)(CNC(=O)c2cc(C3CCOC3)n3cccc(Cl)c23)CCC1(F)F (centres unmarked) [Compound 44, 8-chloro-N-((4,4-difluoro-1-hydroxy-3-methylcyclohexyl)methyl)-3-(tetrahydrofuran-3-yl)indolizine-1-carboxamide] |
| 101 to 500 | COCCc1cc(C(=O)NCC2(O)CCC(F)(F)CC2)c2c(C)cccn12 [Compound 46, 3-(2-Methoxy-ethyl)-8-methyl-indolizine-1-carboxylic Acid (4,4-difluoro-1-hydroxy-cyclohexylmethyl)-amide] |
| 101 to 500 | COCCc1cc(C(=O)NCC2(O)CCC(F)(F)CC2)c2c(C(F)(F)F)cccn12 [Compound 49, 3-(2-Methoxy-ethyl)-8-trifluoromethyl-indolizine-1-carboxylic Acid (4,4-difluoro-1-hydroxy cyclohexylmethyl)-amide] |
| 101 to 500 | O=C(NCC1CCC(F)(F)CC1)c1cc(C2(O)CCOC2)n2cccc(Cl)c12 (centres unmarked) [Compound 55, 8-chloro-N-((4,4-difluorocyclohexyl)methyl)-3-(3-hydroxytetrahydrofuran-3-yl)indolizine-1-carboxamide] |
| 10 to 100 | O=C(NCC1(O)CCC(F)(F)CC1)c1cc(C2CCOCC2)n2cccc(Cl)c12 [Compound 56, 8-chloro-N-((4,4-difluoro-1-hydroxycyclohexyl)methyl)-3-(tetrahydro-2H-pyran-4-yl)indolizine-1-carboxamide] |
| 101 to 500 | O=C(NCC1CCC(F)(F)CC1)c1cc(C2(O)COC2)n2cccc(Cl)c12 [Compound 58, 8-Chloro-3-(3-hydroxy-oxetan-3-yl)-indolizine-1-carboxylic acid (4,4-difluoro-cyclohexylmethyl)-amide] |
| 10 to 100 | O=C(NCC1(O)CCCC(F)(F)C1)c1cc(CCO)n2cccc(Cl)c12 (centres unmarked) [Compound 68, 8-Chloro-3-(2-hydroxy-ethyl)-indolizine-1-carboxylic Acid (3,3-difluoro-1-hydroxy-cyclohexylmethyl)-amide] |
| > 1000 | O=C(NCC1(O)CCCC(C(F)(F)F)C1)c1cc(C2CCOC2)n2cccc(Cl)c12 (centres unmarked) [Compound 74, 8-chloro-N-((1-hydroxy-3-(trifluoromethyl)cyclohexyl)methyl)-3-(tetrahydrofuran-3-yl)indolizine-1-carboxamide] |
| 10 to 100 | CC(CO)c1cc(C(=O)NCC2CCC(F)(F)CC2)c2c(Cl)cccn12 (centres unmarked) [Compound 75, 8-Chloro-3-(2-hydroxy-1-methyl-ethyl)-indolizine-1-carboxylic Acid (4,4-difluoro-cyclohexylmethyl)-amide] |

The next lines start with the molecule.

| Structure (SMILES) | IC50 [nM] |
| --- | --- |
| COCCc1cc(C(=O)NCC2CCCCCC2)c2c(Cl)cccn12 [Compound 1, 8-chloro-N-(cycloheptylmethyl)-3-(2-methoxyethyl)indolizine-1-Carboxamide] | 10 to 100 |
| COCCc1cc(C(=O)NCC2CCCC3(CC3)C2)c2c(Cl)cccn12 (centres unmarked) [Compound 2, 8-chloro-3-(2-methoxyethyl)-N-(spiro[2.5]octan-5-ylmethyl)indolizine-1-carboxamide] | < 10 |
| COCCc1cc(C(=O)NCc2cccc(C(F)(F)F)c2Cl)c2c(Cl)cccn12 [Compound 3, 8-chloro-N-(2-chloro-3-(trifluoromethyl)benzyl)-3-(2-methoxyethyl) indolizine-1-carboxamide] | 101 to 500 |
| O=C(NCC1(O)CCCC(C(F)(F)F)C1)c1cc(C2CCC2)n2cccc(Cl)c12 (centres unmarked) [Compound 4, 8-chloro-3-cyclobutyl-N-((1-hydroxy-3-(trifluoromethyl)cyclohexyl)methyl) indolizine-1-carboxamide] | > 1000 |
| CC1CC(O)(CNC(=O)c2cc(C3CCC3)n3cccc(Cl)c23)CCC1(F)F (centres unmarked) [Compound 7, 8-chloro-3-cyclobutyl-N-((4,4-difluoro-1-hydroxy-3-methylcyclohexyl)methyl) indolizine-1-carboxamide] | 101 to 500 |
| CCOCCc1cc(C(=O)NCC2CCC(F)(F)CC2)c2c(Cl)cccn12 [Compound 19, 8-Chloro-3-(2-ethoxy-ethyl)-indolizine-1-carboxylic Acid (4,4-difluoro-cyclohexylmethyl)-amide] | 101 to 500 |
| O=C(NCC1(O)CCCC(F)(F)C1)c1cc(C2CCC2)n2cccc(Cl)c12 (centres unmarked) [Compound 20, 8-chloro-3-cyclobutyl-N-((3,3-difluoro-1-hydroxycyclohexyl)methyl) indolizine-1-carboxamide] | 10 to 100 |
| COCCc1cc(C(=O)NCC2CCC(F)(F)CC2)c2c(C)cccn12 [Compound 25, 3-(2-Methoxy-ethyl)-8-methyl-indolizine-1-carboxylic Acid (4,4-difluoro-cyclohexylmethyl)-amide] | 101 to 500 |
| COCCc1cc(C(=O)NCC2CCC(F)(F)CC2)c2c(C(F)(F)F)cccn12 [Compound 26, 3-(2-Methoxy-ethyl)-8-trifluoromethyl-indolizine-1-carboxylic Acid (4,4-difluorocyclohexylmethyl)-amide] | 101 to 500 |
| C[C@@H]1CCC[C@](O)(CNC(=O)c2cc(C3CCOCC3)n3cccc(Cl)c23)C1 [Compound 27, 8-chloro-N-(((1R,3R)-1-hydroxy-3-methylcyclohexyl)methyl)-3-(tetrahydro-2H-pyran-4-yl)indolizine-1-carboxamide] | 10 to 100 |
| O=C(NCC1(O)CCCC(C(F)(F)F)C1)c1cc(C2CCOCC2)n2cccc(Cl)c12 (centres unmarked) [Compound 28, 8-chloro-N-((1-hydroxy-3-(trifluoromethyl)cyclohexyl)methyl)-3-(tetrahydro-2H-pyran-4-yl)indolizine-1-carboxamide] | 500 to 999 |
| O=C(NCC1CCC(F)(F)CC1)c1cc(C2CCOCC2)n2cccc(Cl)c12 [Compound 33, 8-chloro-N-((4,4-difluorocyclohexyl)methyl)-3-(tetrahydro-2H-pyran-4-yl)indolizine-1-carboxamide] | 10 to 100 |
| O=C(NCC1CCC(F)(F)CC1)c1cc(CCF)n2cccc(Cl)c12 [Compound 34, 8-Chloro-3-(2-fluoro-ethyl)-indolizine-1-carboxylic Acid (4,4-difluoro-cyclohexylmethyl)-amide] | 10 to 100 |
| C[C@@H]1CCC[C@](O)(CNC(=O)c2cc(C3CCOC3)n3cccc(Cl)c23)C1 (stereo partly drawn) [Compound 38, 8-chloro-N-(((1R,3R)-1-hydroxy-3-methylcyclohexyl)methyl)-3-(tetrahydrofuran-3-yl)indolizine-1-carboxamide] | 10 to 100 |
| O=C(NCC1CCC(F)(F)CC1)c1ccn2cccc(Cl)c12 [Compound 42] | 101 to 500 |

Each molecule was assayed against T1, P2X7 (assay: IL-1β release assay in THP-1 cells (sandwich ELISA, BzATP-stimulated)). Settings: LPS primed, 0.8 mM BzATP, mature IL-1β release, read-out: hTHP-1/IL-ib IC50.
Format: cell-based
Design: endogenous in cells; host or cells: THP-1 cells (PMA-differentiated, LPS-primed)
Protocol: IL-1β release assay: The activation of P2X7 by ATP leads to a fast transient activation of cells resulting in influx of Ca^2+ followed by conversion of pro-IL-1β to active IL-1β. The functional activity of P2X7 compounds was measured by the release of mature IL-1β in the culture medium of THP-1 cells, detected by sandwich ELISA. Cells were maintained in complete growth medium (RPMI 1640+10% HI-FCS+2 mM L-glutamine+1× PS). […] THP-1 cells were harvested from the flask in 50 ml by centrifugation for 3 min at 100 g. The cells were resuspended to 2×10^5 cells/ml in medium supplemented with 0.5 μM PMA and incubated. The cells were washed and resuspended to 1.5×10^5 cells/ml in medium complemented with 10 ng/ml LPS, and the cells were primed for 4 h at 37° C., 5% CO2. After addition of 20 μL of prediluted test compounds, blank, standard and control reagents, cells were incubated for a further 20 min at 37° C. and stimulated with 0.8 mM BzATP for 30 minutes. The cells were centrifuged, supernatant was collected and the presence of mature IL-1β was detected using Dual human IL-1b kit following manufacturer's instruction. The tetrahydrobenzodiazepine analogs effectively modulated the activity of P2X7 in the cells as measured by the levels of pro-inflammatory cytokine IL-1β, which is released by the activation of P2X7 receptor.

| IC50 [nM] | Structure (SMILES) |
| --- | --- |
| < 10 | COCCc1cc(C(=O)NCC2(O)CCCC(F)(F)C2)c2c(Cl)cccn12 (stereo in doubt) [Compound 63, 8-Chloro-3-(2-methoxy-ethyl)-indolizine-1-carboxylic Acid ((S)-3,3-difluoro-1-hydroxy-cyclohexylmethyl)-amide] |
| > 1000 | COCCc1cc(C(=O)NCCC2(O)CCCC2)c2c(Cl)cccn12 [Compound 59, 8-chloro-N-(2-(1-hydroxycyclopentyl)ethyl)-3-(2-methoxyethyl)indolizine-1-carboxamide] |

The next lines start with the molecule.

| Structure (SMILES) | IC50 [nM] |
| --- | --- |
| COCCc1cc(C(=O)NCC2CCCCCC2)c2c(Cl)cccn12 [Compound 1, 8-chloro-N-(cycloheptylmethyl)-3-(2-methoxyethyl)indolizine-1-Carboxamide] | 101 to 500 |
| COCCc1cc(C(=O)NCC2CCCC3(CC3)C2)c2c(Cl)cccn12 (centres unmarked) [Compound 2, 8-chloro-3-(2-methoxyethyl)-N-(spiro[2.5]octan-5-ylmethyl)indolizine-1-carboxamide] | 10 to 100 |
